Test results from patent US20120238604A1, “CYTOTOXIC COMPOUNDS” (Molecular Discovery Systems, priority 2009, published 2012).
Like-named read-outs stand apart in the source and are kept apart here.

Assays:
[1] = system: HeLa cells expressing H2B-GFP; test: Inhibition of cell proliferation (GI50) by nuclear counts, IN Cell Analyser; format: cell-based, human; conditions: for GI50: Homo sapiens; for GI50 / Anti-proliferative activity (effect of substitution, in words): HeLa; for GI50 / GI50 (HeLa): concentration causing 50% inhibition of cell proliferation, nuclear counts every 24 hours; for Anti-proliferative activity (effect of substitution, in words): text comment on Table 3
Experimental: Table 3 HeLa cells expressing H2B-GFP were plated in 96-well plates and exposed to concentrations ranging from 100 μM to […] of the indicated compounds C1-C78. The number of cells was then determined every 24 hours by imaging of the plates using an IN Cell Analyser (GE Healthcare), followed by measurement of the number of intact cell nuclei using Developer™ software (GE Healthcare). Drug concentrations that cause 50% inhibition of cell proliferation (GI50) were determined from the nuclear counts using GraphPad Prism software or ED50v10 freeware.

[2] = system: HeLa cells expressing H2B-GFP; test: Induction of mitotic arrest (EC50), mitotic index by phospho-histone 3 staining; format: cell-based; conditions: Homo sapiens, concentration for 50% induction of mitotic arrest, overnight, read-out: EC50 (mitosis) (HeLa)
Experimental: Parallel plates were treated overnight with the compounds to visualize the mitotic cells by staining with anti-phospho-histone 3 and Alexafluor 546 nm secondary antibodies after fixation with 4% paraformaldehyde. Following imaging of the nuclear GFP and phospho-histone 3 signals using an IN Cell Analyser (GE Healthcare), determination of the mitotic index by analysis of the images with Developer™ software (GE Healthcare) permitted estimation of the concentration that leads to 50% induction of the mitotic arrest (EC50). It can be seen that inhibition of cell proliferation and mitosis correlate well for the compounds tested.

Row | GI50 [1] [nM] | EC50 ([2]; values in nM) [nM] | SMILES | further results
1 | 500 |  | FC(F)(F)c1ccccc1NC(=S)N/N=C/c1cccc2c1OCO2 [CB40] | 
2 | 11 | 10 | CCOc1ccccc1NC(=S)N/N=C/c1ccccc1OC [CB34] | Anti-proliferative activity (effect of substitution, in words) [1]: greatly increase the anti-proliferative activity
3 | 100 to 300 |  | COc1ccccc1/C=N/NC(=S)Nc1cccnc1C [CB52] | 
4 | ~300 |  | COc1cc(C)c(NC(=S)N/N=C/c2ccccc2OC)cn1 [CB47] | 
5 | 3 |  | COc1ccccc1/C=N/NC(=S)Nc1ccccc1C(C)C [CB46] | Anti-proliferative activity (effect of substitution, in words) [1]: greatly increase the anti-proliferative activity
6 | ~5000 |  | COc1ccccc1/C=N/NC(=S)Nc1c(C)cccc1C [CB44] | 
7 | ~5000 |  | COc1ccccc1/C=N/NC(=S)NCc1cccc(C)c1 [CB36] | 
8 | 500 |  | COc1ccccc1/C=N/NC(=S)Nc1cc(C)cc(C)c1 [CB30] | 
9 |  | > 10000 | CCOc1ccccc1NC(=S)N/N=C/c1ccncc1N [CB72] | 
10 |  | > 10000 | CCOc1ccccc1NC(=S)N/N=C/c1cc(N(O)O)ccc1OC [CB68] | 
11 | ~10000 |  | COc1ccccc1/C=N/NC(=S)Nc1cnccc1C [CB53] | 
12 | ~5000 |  | COc1ccccc1/C=N/NC(=S)Nc1ccc(C(C)C)cc1 [CB43] | 
13 |  | ~10000 | COc1ccccc1/C=N/NC(=S)Nc1cc(C(=O)O)ccc1OC [CB58] | 
14 |  | > 10000 | COc1ccccc1/C=N/NC(=S)Nc1ccc2c(c1)OCO2 [CB76] | 
15 |  | > 10000 | COc1ccccc1/C=N/NC(=S)Nc1cccc2c1CCNC2 [CB69] | 
16 | ~3000 |  | COc1ccccc1/C=N/NC(=S)Nc1ccccc1C#N [CB37] | 
17 | 100 to 300 |  | COc1ccccc1/C=N/NC(=S)Nc1cccc2ccccc12 [CB49] | 
18 |  | > 10000 | COc1ccccc1/C=N/NC(=S)Nc1ccc(-c2ccccc2)cc1OC(F)(F)F [CB64] | 
19 |  | ~2000 | CCOCCOc1ccccc1NC(=S)N/N=C/c1ccccc1OC [CB63] | 
20 | ~3000 |  | COc1ccccc1/C=N/NC(=S)Nc1c(C)cccc1OC [CB38] | 
21 |  | ~500 | COc1ccccc1/C=N/NC(=S)Nc1ccccc1OC(F)(F)F [CB60] | 
22 | 1000 |  | COc1ccccc1/C=N/NC(=S)Nc1ccc(F)c(C)c1 [CB29] | 
23 |  | ~500 | CCOc1ccccc1NC(=S)N/N=C/c1cnccc1C [CB71] | 
24 | ~1000 |  | COc1ccccc1/C=N/NC(=S)Nc1cccc(C)n1 [CB55] | 
25 | 50 | 100 | COc1ccccc1/C=N/NC(=S)Nc1ccccc1Br [CB35] | 

Row | GI50 [1] [nM] | EC50 ([2]; values in nM) [nM] | SMILES | further results
26 | ~3000 |  | COC(=O)c1sccc1NC(=S)N/N=C/c1ccccc1OC [CB50] | 
27 | 9.5 |  | COc1ccccc1/C=N/NC(=S)Nc1ccc(C)cc1C [CB42] | Anti-proliferative activity (effect of substitution, in words) [1]: greatly increase the anti-proliferative activity
28 |  | ~1000 | CCOc1ccccc1NC(=S)N/N=C/c1cc(O)ccc1OC [CB74] | 
29 |  | ~1000 | COc1ccccc1/C=N/NC(=S)Nc1ccccc1OCC(C)C [CB56] | 
30 |  | ~50 | COc1ccccc1/C=N/NC(=S)Nc1ccc(Cl)cc1C(F)(F)F [CB62] | 
31 | ~5000 |  | COc1ccccc1/C=N/NC(=S)NC(c1ccccc1)c1ccccc1 [CB41] | 
32 |  | ~200 | COc1ccccc1/C=N/NC(=S)Nc1ccc(F)cc1C(F)(F)F [CB61] | 
33 |  | > 10000 | CCN(CC)CCOc1ccccc1NC(=S)N/N=C/c1ccccc1OC [CB66] | 
34 | 25 |  | COc1ccccc1/C=N/NC(=S)Nc1cccc(Cl)c1OC [CB32] | 
35 |  | > 3000 | CCOc1ccccc1NC(=S)N/N=C/c1cnccc1OC [CB67] | 
36 |  | > 10000 | COc1ccccc1Nc1nnc(-c2ccccc2OC)[nH]1 [CB78] | 
37 | ~3000 |  | COc1ccccc1/C=N/NC(=S)Nc1cccnc1Cl [CB39] | 
38 |  | ~2000 | COc1ccccc1/C=N/NC(=S)Nc1cccnc1 [CB77] | 
39 | 13 |  | CCc1ccccc1NC(=S)N/N=C/c1ccccc1OC [CB45] | Anti-proliferative activity (effect of substitution, in words) [1]: greatly increase the anti-proliferative activity
40 | 1000 |  | C#Cc1ccccc1NC(=S)N/N=C/c1ccccc1OC [CB33] | 
41 | ~10000 |  | COc1ccnc(NC(=S)N/N=C/c2ccccc2OC)c1 [CB51] | 
42 | 100 to 300 |  | COc1ccccc1/C=N/NC(=S)Nc1cnccc1C(F)(F)F [CB48] | 
43 |  | 20 | COc1ccccc1/C=N/NC(=S)Nc1ccc(Cl)cc1Cl [CB75] | Anti-proliferative activity (effect of substitution, in words) [1]: greatly increase the anti-proliferative activity
44 |  | 100 | COc1ccccc1/C=N/NC(=S)Nc1ccc(N)c(C(F)(F)F)c1 [CB65] | 
45 |  | ~10000 | COc1ccccc1/C=N/NC(=S)Nc1cc(-c2ccccc2)ccc1OC [CB59] | 
46 |  | ~1000 | CCOc1ccccc1NC(=S)N/N=C/c1cccnc1N [CB70] | 
47 |  | ~2000 | COc1ccccc1/C=N/NC(=S)Nc1ccccc1CCO [CB57] | 
48 | 17 |  | COc1ccccc1/C=N/NC(=S)Nc1cccnc1OC [CB54] | 
49 |  | ~1000 | CCOc1ccccc1NC(=S)N/N=C/c1cccnc1OC [CB73] | 

Second part, the molecule before the results:

Row | SMILES | GI50 [1] [nM] | EC50 ([2]; values in nM) [nM] | further results
50 | COc1ccccc1/C=N/NC(=S)Nc1cccc(C#N)c1 [C11] | 2000 |  | 
51 | COc1ccc(OC)c(/C=N/NC(=S)Nc2cccc(C)c2)c1 [C19] | ≥ 15000 |  | 
52 | Cc1cccc(NC(=S)N/N=C/c2ccccc2C)c1 [C22] |  |  | GI50 (HeLa) [1]: no activity
53 | COc1cccc(/C=N/NC(=S)Nc2cccc(C)c2)c1OC [C20] |  |  | GI50 (HeLa) [1]: no activity
54 | COc1ccccc1/C=N/NC(=S)NC1CCCCC1 [C12] | ≥ 20000 |  | 
55 | COc1ccccc1/C=N/NC(=S)Nc1ccccc1OC [C15] | 25 | ~70 | Anti-proliferative activity (effect of substitution, in words) [1]: greatly increase the anti-proliferative activity
56 | COc1ccccc1/C=N/NC(=S)Nc1ccccc1 [C7] | 5000 |  | 
57 | COc1ccccc1/C=N/NC(=O)Nc1cccc(C)c1 [C14] | 4000 |  | 
58 | COc1ccccc1/C=N/NC(=S)Nc1cc(Cl)cc(Cl)c1 [C16] | 2600 |  | 
59 | COc1ccccc1/C=N/N(C)C(=S)N(C)c1cccc(C)c1 [C4] | ≥ 20000 |  | 
60 | COc1ccccc1/C=N/NC(=S)Nc1ccccc1Cl [C8] | 100 | 300 | 
61 | COc1ccccc1/C=N/NC(=S)Nc1ccc(C#N)cc1 [C5] | ~20000 |  | 
62 | COc1ccccc1/C=N/NC(=S)Nc1cccc(F)c1 [C17] | ~1000 |  | 
63 | COc1ccc(NC(=S)N/N=C/c2ccccc2OC)cc1 [C10] | 2000 |  | EC50 ([2]; values given in μM): > 1000 nM
64 | COc1ccccc1/C=N/NC(=S)Nc1cccc(Cl)c1 [C24] | 500 |  | 
65 | COc1ccccc1/C=N/NC(=S)Nc1ccc(Cl)cc1 [C13] | 1000 |  | 
66 | COc1ccccc1/C=N/NC(=S)Nc1cccc(C)c1 [C1] | 700 |  | EC50 ([2]; values given in μM): ~1000 nM
67 | COc1ccccc1/C=N/N(C)C(=S)Nc1cccc(C)c1 [C2] | ~15000 |  | 
68 | COc1ccccc1/C(C)=N/NC(=S)Nc1cccc(C)c1 [C3] | ≥ 20000 |  | 
69 | COc1ccccc1/C=N/NC(=S)Nc1ccccc1C [C6] | 90 | 150 | 
70 | Cc1cccc(NC(=S)N/N=C/c2ccccc2F)c1 [C27] | ≥ 20000 |  | 
71 | COc1ccccc1/C=N/NC(=S)Nc1ccc(C)cc1 [C18] | 700 | ≥ 30 | 
72 | COc1cccc(OC)c1/C=N/NC(=S)Nc1cccc(C)c1 [C21] |  |  | GI50 (HeLa) [1]: no activity
73 | COc1ccccc1/C=N/NC(=S)Nc1ccc(F)c(Cl)c1 [C28] | ~3000 |  | 
74 | COc1ccccc1/C=N/NC(=S)Nc1ccc(C(F)(F)F)cc1 [C23] | ≥ 20000 |  | 
75 | COc1ccccc1/C=N/NC(=S)NCc1ccccc1 [C25] |  |  | GI50 (HeLa) [1]: no activity
